Source: patent publication US10442791B2, “DNA-PK inhibitors” (Vertex Pharmaceuticals Incorporated, priority 2012, dated 2019)

Molecular target: DNA-PK (Homo sapiens, UniProt P78527)
Assay: DNA-PK inhibition assay (radiometric 33P-ATP kinase assay)
Assay type: biochemical
Conditions: 100 μM ATP; competitive tight-binding fit
Protocol: Compounds were screened for their ability to inhibit DNA-PK kinase using a standard radiometric assay. Briefly, in this kinase assay the transfer of the terminal ^33P-phosphate in ^33P-ATP to a peptide substrate is interrogated. The assay was carried out in 384-well plates to a final volume of 50 μL per well containing approximately 6 nM DNA-PK, 50 mM HEPES (pH 7.5), 10 mM MgCl2, 25 mM NaCl, 0.01% BSA, 1 mM DTT, 10 μg/mL sheared double-stranded DNA (obtained from Sigma), 0.8 mg/mL DNA-PK peptide ([…] obtained from American Peptide), and 100 μM ATP. Accordingly, compounds of the invention were dissolved in DMSO to make 10 mM initial stock solutions. Serial dilutions in DMSO were then made to obtain the final solutions for the assay. A 0.75 μL aliquot of DMSO or inhibitor in DMSO was added to each well, followed by the addition of ATP substrate solution containing ^33P-ATP (obtained from Perkin Elmer). The reaction was started by the addition of DNA-PK, peptide and ds-DNA. After 45 min. the reaction was quenched with 25 μL of 5% phosphoric acid. The reaction mixture was transferred to MultiScreen HTS 384-well PH plates (obtained from Millipore), allowed to bind for one hour, and washed three times with 1% phosphoric acid. Following the addition of 50 μL of Ultima Gold™ high efficiency scintillant (obtained from Perkin Elmer), the samples were counted in a Packard TopCount NXT Microplate Scintillation and Luminescence Counter (Packard BioScience). The Ki values were calculated using Microsoft Excel Solver macros to fit the data to the kinetic model for competitive tight-binding inhibition.

Row | SMILES | Ki [nM]
1 | CNC(=O)c1ccnc2c([C@H](C)CNc3cc(-c4cnc(N(C)C5CCN(C)CC5)nc4)ncn3)cccc12 [Compound 1057] | < 30
2 | CNC(=O)c1c(F)cnc2c([C@H](C)CNc3cc(-c4ccc(N(C)C5CCN(C)CC5)nc4)ncn3)cccc12 [Compound 1087] | < 30
3 | CNC(=O)c1ccnc2c([C@H](C)CNc3cc(-c4cnc(OCC(F)(F)F)nc4)ncn3)cccc12 [Compound 769] | < 30
4 | CNC(=O)c1c(F)cnc2c([C@H](C)CNc3cc(-c4cnc(NC5CCN(C)CC5)nc4)ncn3)cccc12 [Compound 1079] | < 30
5 | CNC(=O)c1ccnc2c([C@H](C)CNc3cc(-c4cnc(NC5CCN(C(C)=O)CC5)nc4)ncn3)ccc(F)c12 [Compound 1055] | < 30
6 | CNC(=O)c1c(F)cnc2c([C@H](C)CNc3cc(-c4cnc(CC5CCN(C(C)=O)CC5)nc4)ncn3)cccc12 [Compound 1044] | < 30

The next lines start with the values.

Row | Ki [nM] | SMILES
7 | < 30 | CNC(=O)c1ccnc2c([C@H](C)CNc3cc(-c4cnc(NC5CCN(CC(F)F)CC5)nc4)ncn3)ccc(F)c12 [Compound 1038]
8 | < 30 | CNC(=O)c1c(F)cnc2c([C@H](C)CNc3cc(-c4cnc(OC)nc4)ncn3)cccc12 [Compound 1035]
9 | < 30 | CNC(=O)c1ccnc2c([C@H](C)CNc3cc(-c4cnc(OC)c(CO)c4)ncn3)ccc(F)c12 [Compound 883]
